Legend:
[1] = biological target: KDR (phospho-KDR, VEGF165-stimulated HUVEC cells) (Homo sapiens (Human), UniProt P35968); assay: KDR autophosphorylation ELISA in HUVEC cells (Example G); type: cell-based; settings: cellular activity; KDR autophosphorylation ELISA in HUVEC cells
In short: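 Cells seeded, grown 24 h at 37 °C, starved 24 h serum-free; cpd 8-pt curve, 0.3% DMSO, 1 h; VEGF165 100 ng/mL, 5 min; cold PBS wash, lysis with orthovanadate and protease/phosphatase inhibitors; pKDR ELISA; IC50 by 4-parameter logistic regression.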

[2] = biological target: Mer (phospho-Mer, MERTK-transfected 293A cells) (Homo sapiens (Human), UniProt Q12866); assay: Mer autophosphorylation ELISA in transient transfected 293A cells (Example H); type: cell-based; settings: cellular activity; Mer autophosphorylation ELISA in transient transfected 293A cells
Mer (phospho-Mer, MERTK-transfected 293A cells), sequence (Q12866 21-999): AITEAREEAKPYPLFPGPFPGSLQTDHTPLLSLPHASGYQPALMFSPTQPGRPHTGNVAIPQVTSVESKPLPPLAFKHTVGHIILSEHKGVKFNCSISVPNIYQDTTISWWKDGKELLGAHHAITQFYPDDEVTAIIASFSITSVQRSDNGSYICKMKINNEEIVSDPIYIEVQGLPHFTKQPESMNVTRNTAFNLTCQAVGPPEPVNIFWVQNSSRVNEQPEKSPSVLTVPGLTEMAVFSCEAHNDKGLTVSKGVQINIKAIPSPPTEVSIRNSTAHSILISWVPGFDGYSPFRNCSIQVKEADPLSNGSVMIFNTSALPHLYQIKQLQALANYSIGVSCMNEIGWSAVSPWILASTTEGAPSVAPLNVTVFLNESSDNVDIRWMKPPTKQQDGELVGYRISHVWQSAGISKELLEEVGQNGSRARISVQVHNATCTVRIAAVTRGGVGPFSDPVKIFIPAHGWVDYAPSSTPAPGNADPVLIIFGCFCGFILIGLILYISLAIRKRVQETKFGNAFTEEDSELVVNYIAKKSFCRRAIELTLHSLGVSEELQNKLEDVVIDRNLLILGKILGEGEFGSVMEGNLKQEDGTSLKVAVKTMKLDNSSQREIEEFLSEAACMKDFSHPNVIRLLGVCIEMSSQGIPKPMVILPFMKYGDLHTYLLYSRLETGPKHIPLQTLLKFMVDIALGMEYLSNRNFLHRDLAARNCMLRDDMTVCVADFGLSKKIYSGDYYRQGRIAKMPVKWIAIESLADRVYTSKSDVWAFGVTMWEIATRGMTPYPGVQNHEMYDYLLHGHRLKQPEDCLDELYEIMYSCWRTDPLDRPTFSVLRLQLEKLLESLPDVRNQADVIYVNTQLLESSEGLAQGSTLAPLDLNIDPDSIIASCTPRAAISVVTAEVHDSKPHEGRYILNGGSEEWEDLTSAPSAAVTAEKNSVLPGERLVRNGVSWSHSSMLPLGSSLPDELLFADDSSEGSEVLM
In short: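 293A cells transiently transfected with human MERTK were treated 1 h in serum-free medium with an 8-point compound dilution (0.3% DMSO final). Lysates were assayed by phospho-Mer sandwich ELISA against a phospho-Mer standard; IC50 came from a 4-parameter logistic fit, normalised to DMSO (100%) and reference-inhibitor (0%) controls.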

KDR (phospho-KDR, VEGF165-stimulated HUVEC cells), sequence (P35968 20-1356): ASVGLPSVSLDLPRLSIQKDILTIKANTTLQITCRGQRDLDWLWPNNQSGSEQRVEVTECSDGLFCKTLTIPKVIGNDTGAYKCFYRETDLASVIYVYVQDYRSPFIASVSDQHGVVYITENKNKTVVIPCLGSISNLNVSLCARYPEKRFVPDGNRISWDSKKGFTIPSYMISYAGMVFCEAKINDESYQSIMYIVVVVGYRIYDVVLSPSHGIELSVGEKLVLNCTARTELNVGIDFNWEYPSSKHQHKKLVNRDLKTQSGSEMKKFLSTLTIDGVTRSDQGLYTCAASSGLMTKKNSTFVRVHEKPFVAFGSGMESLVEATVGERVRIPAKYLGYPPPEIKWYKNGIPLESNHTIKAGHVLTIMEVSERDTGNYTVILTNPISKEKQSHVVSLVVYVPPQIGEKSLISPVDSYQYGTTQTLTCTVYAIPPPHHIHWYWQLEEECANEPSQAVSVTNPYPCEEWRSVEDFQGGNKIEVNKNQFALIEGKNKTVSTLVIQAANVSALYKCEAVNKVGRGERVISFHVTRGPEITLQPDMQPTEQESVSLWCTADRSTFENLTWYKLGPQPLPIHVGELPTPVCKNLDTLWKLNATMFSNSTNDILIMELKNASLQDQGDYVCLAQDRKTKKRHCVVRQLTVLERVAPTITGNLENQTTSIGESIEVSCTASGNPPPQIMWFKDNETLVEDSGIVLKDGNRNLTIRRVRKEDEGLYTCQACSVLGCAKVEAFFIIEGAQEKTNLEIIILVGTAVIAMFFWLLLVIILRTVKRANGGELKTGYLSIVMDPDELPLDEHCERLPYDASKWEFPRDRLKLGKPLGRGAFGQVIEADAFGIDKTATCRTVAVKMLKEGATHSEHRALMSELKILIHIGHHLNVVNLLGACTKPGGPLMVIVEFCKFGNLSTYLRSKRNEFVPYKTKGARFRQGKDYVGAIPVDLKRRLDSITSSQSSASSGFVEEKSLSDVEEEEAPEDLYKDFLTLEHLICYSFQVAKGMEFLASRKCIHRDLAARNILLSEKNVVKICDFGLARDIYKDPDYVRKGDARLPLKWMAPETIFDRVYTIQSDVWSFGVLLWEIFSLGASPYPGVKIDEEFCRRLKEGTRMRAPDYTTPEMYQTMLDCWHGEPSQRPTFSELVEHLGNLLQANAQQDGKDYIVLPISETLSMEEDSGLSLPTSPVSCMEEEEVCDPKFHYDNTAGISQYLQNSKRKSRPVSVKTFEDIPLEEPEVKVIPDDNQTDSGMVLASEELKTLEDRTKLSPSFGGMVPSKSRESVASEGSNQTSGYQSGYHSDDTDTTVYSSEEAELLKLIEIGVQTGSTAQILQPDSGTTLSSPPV

SMILES | IC50 [1] | IC50 [2]
CNC(=O)c1cc2c(Oc3ccc(NC(=O)c4c5n(cc(-c6ccc(F)cc6)c4=O)CCC5)cc3F)ccnc2cc1OC [Compound 408, 4-[2-fluoro-4-[[6-(4-fluorophenyl)-7-oxo-2,3-dihydro-1H-indolizine-8-carbonyl]amino]phenoxy]-7-methoxy-N-methylquinoline-6-carboxamide] | < 100 nM | < 100 nM
CCc1cnc2c(Oc3ccc(NC(=O)c4cnc(C)c(-c5ccc(F)cc5)c4O)cc3F)ccnc2c1 [Compound 418, N-[4-[(7-ethyl-1,5-naphthyridin-4-yl)oxy]-3-fluorophenyl]-5-(4-fluorophenyl)-4-hydroxy-6-methylpyridine-3-carboxamide] | < 100 nM | < 100 nM
COc1cc2nccc(Oc3ccc(NC(=O)c4cc(C#N)c(C)n(-c5ccc(F)cc5)c4=O)cc3F)c2nc1OC [Compound 87, 5-Cyano-N-[4-[(6,7-dimethoxy-1,5-naphthyridin-4-yl)oxy]-3-fluorophenyl]-1-(4-fluorophenyl)-6-methyl-2-oxopyridine-3-carboxamide] | > 300 nM | < 100 nM
COc1ccc2nccc(Oc3ccc(NC(=O)c4ccc(C)n(-c5ccc(F)cc5C)c4=O)cc3F)c2n1 [Compound 85, N-[3-Fluoro-4-[(6-methoxy-1,5-naphthyridin-4-yl)oxy]phenyl]-1-(4-fluoro-2-methylphenyl)-6-methyl-2-oxopyridine-3-carboxamide] | < 100 nM | < 100 nM
COc1cc2nccc(Oc3ccc(NC(=O)c4nn(C)c(C)c(-c5ccc(F)cc5)c4=O)cc3F)c2nc1OC [Compound 92, N-[4-[(6,7-Dimethoxy-1,5-naphthyridin-4-yl)oxy]-3-fluorophenyl]-5-(4-fluorophenyl)-1,6-dimethyl-4-oxopyridazine-3-carboxamide] | < 100 nM | < 100 nM
COc1ccc2nccc(Oc3ccc(NC(=O)c4cn(C5CC5)c(C)c(-c5ccc(F)cc5C)c4=O)cc3F)c2n1 [Compound 441, 1-cyclopropyl-N-[3-fluoro-4-[(6-methoxy-1,5-naphthyridin-4-yl)oxy]phenyl]-5-(4-fluoro-2-methylphenyl)-6-methyl-4-oxopyridine-3-carboxamide] | > 300 nM | < 100 nM
CCn1cc(-c2ccc(F)cc2)c(=O)c(C(=O)Nc2ccc(Oc3ccnc4cc(OC)c(OC)nc34)c(F)c2)c1C [Compound 82, N-[4-[(6,7-Dimethoxy-1,5-naphthyridin-4-yl)oxy]-3-fluorophenyl]-1-ethyl-5-(4-fluorophenyl)-2-methyl-4-oxopyridine-3-carboxamide] | 100 to 300 nM | < 100 nM
COc1cc2nccc(Oc3ccc(NC(=O)c4cn(C)c(Cl)c(-c5ccc(F)cc5)c4=O)cc3F)c2nc1OC [Compound 412, 6-chloro-N-[4-[(6,7-dimethoxy-1,5-naphthyridin-4-yl)oxy]-3-fluorophenyl]-5-(4-fluorophenyl)-1-methyl-4-oxopyridine-3-carboxamide] | < 100 nM | < 100 nM
Cc1cc(F)ccc1-c1c(C)nnc(C(=O)Nc2ccc(Oc3ccnc4cc(C)c(F)nc34)c(F)c2)c1O [Compound 430, N-[3-fluoro-4-[(6-fluoro-7-methyl-1,5-naphthyridin-4-yl)oxy]phenyl]-5-(4-fluoro-2-methylphenyl)-4-hydroxy-6-methylpyridazine-3-carboxamide] | > 300 nM | < 100 nM
COc1cnc2c(Oc3ccc(NC(=O)c4ccc(C)n(-c5ccc(F)cc5)c4=O)cc3F)ccnc2c1 [Compound 83, N-[3-Fluoro-4-[(7-methoxy-1,5-naphthyridin-4-yl)oxy]phenyl]-1-(4-fluorophenyl)-6-methyl-2-oxopyridine-3-carboxamide] | < 100 nM | < 100 nM
COc1cc2nccc(Oc3ccc(NC(=O)c4c(C)nc(OC)c(-c5ccc(F)cc5)c4O)cc3F)c2nc1OC [Compound 442, N-[4-[(6,7-dimethoxy-1,5-naphthyridin-4-yl)oxy]-3-fluorophenyl]-5-(4-fluorophenyl)-4-hydroxy-6-methoxy-2-methylpyridine-3-carboxamide] | < 100 nM | < 100 nM
COc1ccc2nccc(Oc3ccc(NC(=O)c4c(C)nc(C)c(-c5ccc(F)cc5)c4O)cc3F)c2n1 [Compound 67, N-[3-Fluoro-4-[(6-methoxy-1,5-naphthyridin-4-yl)oxy]phenyl]-5-(4-fluorophenyl)-4-hydroxy-2,6-dimethylpyridine-3-carboxamide] | < 100 nM | < 100 nM

Second part, the compound after the results:

IC50 [1] | IC50 [2] | SMILES
> 300 nM | < 100 nM | COc1cc2nccc(Oc3ccc(NC(=O)c4cn(-c5cc[nH]n5)cc(-c5ccc(F)cc5)c4=O)cc3F)c2nc1OC [Compound 61, N-[4-[(6,7-Dimethoxy-1,5-naphthyridin-4-yl)oxy]-3-fluorophenyl]-5-(4-fluorophenyl)-4-oxo-1-(1H-pyrazol-3-yl)pyridine-3-carboxamide]
< 100 nM | < 100 nM | CNc1c(-c2ccc(F)cc2)c(=O)c(C(=O)Nc2ccc(Oc3ccnc4cc(OC)c(OC)nc34)c(F)c2)cn1C [Compound 76, N-[4-[(6,7-Dimethoxy-1,5-naphthyridin-4-yl)oxy]-3-fluorophenyl]-5-(4-fluorophenyl)-1-methyl-6-(methylamino)-4-oxopyridine-3-carboxamide]
> 300 nM | < 100 nM | COc1cc2nccc(Oc3ccc(NC(=O)c4cn(C5CC5)c(C)c(-c5ccc(F)cc5)c4=O)cc3F)c2nc1OC [Compound 433, 1-cyclopropyl-N-[4-[(6,7-dimethoxy-1,5-naphthyridin-4-yl)oxy]-3-fluorophenyl]-5-(4-fluorophenyl)-6-methyl-4-oxopyridine-3-carboxamide]
< 100 nM | < 100 nM | COc1cc2nccc(Oc3ccc(NC(=O)c4n[nH]c(C)c(-c5ccc(F)cc5)c4=O)cc3F)c2nc1OC [Compound 88, N-[4-[(6,7-Dimethoxy-1,5-naphthyridin-4-yl)oxy]-3-fluorophenyl]-5-(4-fluorophenyl)-6-methyl-4-oxo-1H-pyridazine-3-carboxamide]
100 to 300 nM | < 100 nM | COc1cc2nccc(Oc3ccc(NC(=O)c4cn(C)c(OC)c(-c5ccc(F)cc5)c4=O)cc3F)c2nc1OC [Compound 78, N-[4-[(6,7-Dimethoxy-1,5-naphthyridin-4-yl)oxy]-3-fluorophenyl]-5-(4-fluorophenyl)-6-methoxy-1-methyl-4-oxopyridine-3-carboxamide]
< 100 nM | < 100 nM | COc1cnc2c(Oc3ccc(NC(=O)c4cnc(C)c(-c5ccc(F)cc5)c4O)cc3F)ccnc2c1 [Compound 64, N-[3-Fluoro-4-[(7-methoxy-1,5-naphthyridin-4-yl)oxy]phenyl]-5-(4-fluorophenyl)-4-hydroxy-6-methylpyridine-3-carboxamide]
< 100 nM | < 100 nM | Cc1cc2nccc(Oc3ccc(NC(=O)c4cnc(C)c(-c5ccc(F)cc5)c4O)cc3F)c2nc1OCCCN1CCOCC1 [Compound 438, N-[3-fluoro-4-[[7-methyl-6-(3-morpholin-4-ylpropoxy)-1,5-naphthyridin-4-yl]oxy]phenyl]-5-(4-fluorophenyl)-4-hydroxy-6-methylpyridine-3-carboxamide]
100 to 300 nM | < 100 nM | COc1cc2nccc(Oc3ccc(NC(=O)c4cc(C(C)=O)c(C)n(-c5ccc(F)cc5)c4=O)cc3F)c2nc1OC [Compound 86, 5-Acetyl-N-[4-[(6,7-dimethoxy-1,5-naphthyridin-4-yl)oxy]-3-fluorophenyl]-1-(4-fluorophenyl)-6-methyl-2-oxopyridine-3-carboxamide]
< 100 nM | < 100 nM | COc1cc2nccc(Oc3ccc(NC(=O)c4cnc(C)c(-c5ccc(F)cc5C)c4O)cc3F)c2nc1OCCCN1CCOCC1 [Compound 425, N-[3-fluoro-4-[[7-methoxy-6-(3-morpholin-4-ylpropoxy)-1,5-naphthyridin-4-yl]oxy]phenyl]-5-(4-fluoro-2-methylphenyl)-4-hydroxy-6-methylpyridine-3-carboxamide]
< 100 nM | < 100 nM | COc1cc2nccc(Oc3ccc(NC(=O)c4ncc(C)n(-c5ccc(F)cc5)c4=O)cc3F)c2nc1OC [Compound 93, N-[4-[(6,7-Dimethoxy-1,5-naphthyridin-4-yl)oxy]-3-fluorophenyl]-4-(4-fluorophenyl)-5-methyl-3-oxopyrazine-2-carboxamide]
> 300 nM | < 100 nM | COc1cc2nccc(Oc3ccc(NC(=O)c4cn(C5CC5)c(C)c(-c5ccc(F)cc5C)c4=O)cc3)c2nc1OC [Compound 440, 1-cyclopropyl-N-[4-[(6,7-dimethoxy-1,5-naphthyridin-4-yl)oxy]phenyl]-5-(4-fluoro-2-methylphenyl)-6-methyl-4-oxopyridine-3-carboxamide]
> 300 nM | < 100 nM | COc1cc2nccc(Oc3ccc(NC(=O)c4c(C)nc(O)c(-c5ccc(F)cc5)c4O)cc3F)c2nc1OC [Compound 443, N-[4-[(6,7-dimethoxy-1,5-naphthyridin-4-yl)oxy]-3-fluorophenyl]-5-(4-fluorophenyl)-4,6-dihydroxy-2-methylpyridine-3-carboxamide]
< 100 nM | < 100 nM | CCc1cc2nccc(Oc3ccc(NC(=O)c4cnc(C)c(-c5ccc(F)cc5C)c4O)cc3F)c2nc1OC [Compound 421, N-[4-[(7-ethyl-6-methoxy-1,5-naphthyridin-4-yl)oxy]-3-fluorophenyl]-5-(4-fluoro-2-methylphenyl)-4-hydroxy-6-methylpyridine-3-carboxamide]

Source: patent US12371428B2 (Exelixis, Inc., priority 2019, dated 2025)
